Laboratory results: the NIST ThermoML archive (doi:10.1021/je700088n)
Numbers after ± are expanded uncertainties.

Key:
[1] = Crystal; for Normal melting temperature: DTA; for mass density: 298.1 K, 101.33 kPa, digital densimeter
[2] = Molar enthalpy of transition or fusion; settings: Crystal; DSC

Structure (SMILES) | Normal melting temperature [1] | Molar enthalpy of transition or fusion [2] | mass density [1]
Cc1cccc2ccccc12 [1-methylnaphthalene] | -30.9 ± 0.5 °C |  | 
Cc1ccc(C)c2ccccc12 [1,4-dimethylnaphthalene] | 6.00 ± 0.5 °C | 2.53 ± 0.0884 kcal/mol | 
Cc1ccc2cc(C)ccc2c1 [2,6-dimethylnaphthalene] | 112.00 ± 0.5 °C | 6.05 ± 0.174 kcal/mol | 1021 ± 10 kg/m3
Cc1ccc2c(C)cccc2c1 [1,6-dimethylnaphthalene] | -16.20 ± 0.5 °C | 2.03 ± 0.0741 kcal/mol | 
Cc1ccc2ccc(C)cc2c1 [2,7-dimethylnaphthalene] | 97.00 ± 0.5 °C | 5.31 ± 0.158 kcal/mol | 1010 ± 10 kg/m3
Cc1cccc2cccc(C)c12 [1,8-dimethylnaphthalene] | 65.00 ± 0.5 °C | 4.43 ± 0.134 kcal/mol | 
Cc1cccc2c(C)cccc12 [1,5-dimethylnaphthalene] | 82.00 ± 0.5 °C | 4.78 ± 0.143 kcal/mol | 
Cc1ccc2ccccc2c1 [2-methylnaphthalene] | 34.70 ± 0.5 °C |  | 
Cc1cc2ccccc2cc1C [2,3-dimethylnaphthalene] | 104.00 ± 0.5 °C | 5.73 ± 0.167 kcal/mol | 1012 ± 10 kg/m3
